In patent US11096946B2, “Use of a PPAR-δ agonist for reducing loss of muscle strength, muscle mass, or type I muscle fibers in an immobilized limb” (vTv Therapeutics LLC, priority 2013, dated 2021):
Several values for one entry are separate records, joined by “and”; a condition that tells them apart may be missing. Equal values may be shown once. Where a name gives a salt, the structure may show the parent alone.

System: human subjects
Experiment: Repeated measures knee extension strength test (Muscle Strength Test) during and after limb immobilization, placebo-controlled study
Type: in vivo
Conditions: for Muscle strength, knee extension, Baseline Mean: baseline pre-dose; for Muscle strength, knee extension, LSMean change from baseline, Day 14: Day 14 (brace off); for Muscle strength, knee extension, LSMean change from baseline, Day 29: P 0.2 vs placebo; for Mean Difference Compound 1 vs Placebo, LSMean change in muscle strength, Day 29: P 0.2
Text: A protocol for the experimental evaluation of the impact of a PPARδ agonist on muscle atrophy during and following the end of limb immobilization is provided below. In the protocol, reference to Compound 1 refers to (E)-[4-[3-(4-Fluorophenyl)-3-[4-[3-(morpholin-4-yl)propynyl]phenyl]allyloxy]-2-methyl-phenoxy]acetic acid sodium salt.
A randomized, investigator and subject blind, sponsor open, placebo-controlled study evaluating the possible impact of Compound 1 on the recovery of muscle atrophy from limb immobilization is described. Subjects will be leg immobilized using a knee brace (30 degrees flexion on the left leg to allow driving) and will be provided with walking crutches such that there is no weight bearing on the immobilized leg. Subjects will be enrolled and randomized to receive Compound 1 or placebo (both referenced as Study Drug in this protocol). The study consists of five periods termed SCR (screening period, Day −35 to −3), BL (baseline period: Day −1 to Day 1 [am]), IMM (limb immobilization and treatment with study drug, Day 1 [pm] to Day 14), TRE (treatment with study drug without limb immobilization, Day 15 to Day 29) and REC (no treatment recovery period, Day 29 to Day 42). There will be six testing days during the study: Day 1 (baseline), Day 14 (brace off day), Day 16 (48 hours after brace off), Day 21, Day 29 (last dose) and Day 42 (final study visit). On each testing day, subjects will undergo the combination of several testing procedures in sequential order as listed: 1) Morning activity plus approximately 500-step walk (when domiciled at Clinical Research Unit [CRU]); 2) Blood sampling; 3) Standardized breakfast (Study Drug administration will be immediately before the breakfast except for Day 42); 4) Muscle biopsy; 5) Leg muscle strength tests (MST) and modified physical performance test (PPT); and 6) Magnetic resonance imaging (MRI) of the thigh to evaluate thigh muscle volume/cross-section area (CSA).
Two treatment groups in this study: • a) Treatment group A: Treated with 100 mg of Compound 1 twice daily from Day 1 to Day 29. • b) Treatment group B: Treated with placebo twice daily from Day 1 to Day 29.
The maximal amount of weight that the participant is able to lift for one repetition (1-RM) will be measured on a Hoist multi-station weight machine for the following exercises: leg press, knee extension, knee flexion, and bench press. Isokinetic (Cybex) testing of knee extension/flexion will be done to assess deficiencies in rapid strength recruitment. Subjects will be seated on the testing device and strapped in to prevent the pelvis from sliding forward. The movement arm will be adjusted to the subject's leg length and the weight of the leg will be determined. Isokinetic testing of the knee extensors and flexors will be performed at 0°/s, 60°/s and 180°/s. Four to five repetitions at each mode will be performed with the highest two values used for data analysis. Subjects will be familiarized with these procedures during the screening visit.
An experimental study was conducted to evaluate the impact of Compound 1, a PPARδ agonist, on muscle atrophy during and following the end of limb immobilization in human subjects. Except where specifically noted otherwise below, all methods were conducted as described in the protocol above.
Methods were generally conducted as described in the protocol. The study was designed as a double-blind, randomized, placebo-controlled, parallel study in healthy male subjects. A total of N=24 subjects were randomized. The number of randomized subjects is lower than originally planned. A total of N=21 subjects had data available for statistical analysis.
Multiple imputation statistical methods were used to preserve the intent-to-treat (ITT) principle while coping with invalid and missing data.
Primary analysis was executed as defined in the study protocol and the statistical analysis plan (see protocol described above). […]

Q: How did the “Change in muscle strength compared to baseline, difference to placebo” value (14 days following the end of immobilization (i.e., day 28)) turn out when `Cc1cc(OC/C=C(/c2ccc(F)cc2)c2ccc(C#CCN3CCOCC3)cc2)ccc1OCC(=O)O` [Compound 1, (E)-[4-[3-(4-Fluorophenyl)-3-[4-[3-(morpholin-4-yl)propynyl]phenyl]allyloxy]-2-methyl-phenoxy]acetic acid sodium salt] was run?
A: Its value is “no longer significantly different”.

Q: What about the “Muscle strength, knee extension, Baseline Mean” value (Table 1 primary analysis, multiple imputation for missing and invalid data, n = 10, healthy males, raw data in lbs) of the same molecule?
A: Its value is 195.

Q: And the “Muscle strength, knee extension, LSMean change from baseline, Day 14” value (Table 1 primary analysis, multiple imputation, 100 mg twice daily, n = 10, P 0.012 vs placebo)?
A: The value was −2.9.

Q: What about the “Mean Difference Compound 1 vs Placebo, LSMean change in muscle strength, Day 14” value (Table 1 primary analysis, multiple imputation, P 0.012) of the same molecule?
A: The value was 36.

Q: What about the “Muscle strength, knee extension, LSMean change from baseline, Day 21 (primary)” value (Table 1 primary analysis, multiple imputation, 100 mg twice daily, n = 10, P 0.004 vs placebo) of the same molecule?
A: Its value is 36.8.

Q: What about the “Mean Difference Compound 1 vs Placebo, LSMean change in muscle strength, Day 21 (primary)” value (Table 1 primary analysis, multiple imputation, P 0.004) of the same molecule?
A: The value was 36.5.

Q: And the “Muscle strength, knee extension, LSMean change from baseline, Day 29” value (Table 1 primary analysis, multiple imputation, 100 mg twice daily, n = 10)?
A: The value was 30.4.

Q: And the “Mean Difference Compound 1 vs Placebo, LSMean change in muscle strength, Day 29” value (Table 1 primary analysis, multiple imputation)?
A: The value was 21.9.

Q: What about the “Mean Difference Compound 1 vs Placebo, Baseline mean muscle strength” value (Table 1 primary analysis, multiple imputation, P 0.3) of the same molecule?
A: Its value is 19.

Q: What about the “Muscle strength, knee extension, Baseline Mean” value (Table 2 supportive analysis, no imputation, excluding protocol violators, n = 9) of the same molecule?
A: Its value is 191 lbs.

Q: What about the “Muscle strength, knee extension, LSMean change from baseline, Day 14” value (Table 2 supportive analysis, no imputation, 100 mg twice daily, n = 9, P 0.04 vs placebo) of the same molecule?
A: The value was −1.9 lbs.

Q: And the “Mean Difference Compound 1 vs Placebo, LSMean change in muscle strength, Day 14” value (Table 2 supportive analysis, no imputation, P 0.04)?
A: Its value is 36.3 lbs.

Q: And the “Muscle strength, knee extension, LSMean change from baseline, Day 21 (primary)” value (Table 2 supportive analysis, no imputation, 100 mg twice daily, n = 9, P 0.048 vs placebo)?
A: The value was 31.5 lbs.

Q: And the “Mean Difference Compound 1 vs Placebo, LSMean change in muscle strength, Day 21 (primary)” value (Table 2 supportive analysis, no imputation, P 0.048)?
A: The value was 31.3 lbs.

Q: What about the “Muscle strength, knee extension, LSMean change from baseline, Day 29” value (Table 2 supportive analysis, no imputation, 100 mg twice daily, n = 9) of the same molecule?
A: The value was 32.5 lbs.

Q: What about the “Mean Difference Compound 1 vs Placebo, LSMean change in muscle strength, Day 29” value (Table 2 supportive analysis, no imputation) of the same molecule?
A: The value was 19.4 lbs.

Q: And the “Mean Difference Compound 1 vs Placebo, Baseline mean muscle strength” value (Table 2 supportive analysis, no imputation, P 0.4)?
A: Its value is 23 lbs.

Q: And the “Primary muscle strength variable of analysis vs placebo” value (human subjects, N=21 with data available)?
A: The value was “statistically significant superiority over placebo”.

Q: What about the “Rate of loss of muscle strength during immobilization” value (human subjects, compared to their baseline measurements) of the same molecule?
A: Its value is “reduced to almost zero”.

Q: And the “Mean change from baseline to day 21 in muscle strength relative to placebo” value (human subjects, day 21)?
A: The value was “showed superiority”.

Q: What about the “Muscle atrophy during immobilization (rate of loss of muscle strength relative to placebo)” value (human subjects, during immobilization) of the same molecule?
A: Its value is “effective in reducing muscle atrophy during immobilization”.

Q: What about the “Atrophy following immobilization (rate of return of muscle strength to baseline relative to placebo)” value (human subjects, following immobilization) of the same molecule?
A: Its value is “reducing atrophy following immobilization”.

Q: And the “Maximum muscle strength on the knee extension (KE), raw value, Day 1” value (individual Treated subjects A-I, Day 1 baseline, pre-dose, sodium salt)?
A: The value was 220.5 Lbs and 145.5 Lbs and 215.5 Lbs and 265.5 Lbs and 123 Lbs and 260.5 Lbs and 168 Lbs and 163 Lbs and 160.5 Lbs.

Q: What about the “Maximum muscle strength on the knee extension (KE), raw value, Day 14” value (individual Treated subjects A-I, Day 14, day brace is removed, 100 mg twice daily, sodium salt) of the same molecule?
A: The value was 200.5 Lbs and 195 Lbs and 163 Lbs and 255.5 Lbs and 120.5 Lbs and 225.5 Lbs and 158 Lbs and 185.5 Lbs and 170.5 Lbs.

Q: And the “Maximum muscle strength on the knee extension (KE), raw value, Day 21” value (individual Treated subjects A-I, Day 21, primary endpoint, 100 mg twice daily, sodium salt)?
A: Its value is 270.5 Lbs (3×) and 225.5 Lbs and 213 Lbs and 158 Lbs and 183 Lbs and 205.5 Lbs.

Q: What about the “Maximum muscle strength on the knee extension (KE), raw value, Day 29” value (individual Treated subjects A-I, Day 29, final assessment during treatment period, sodium salt) of the same molecule?
A: Its value is 270.5 Lbs (2×) and 235.5 Lbs and 225.5 Lbs and 213 Lbs and 150.5 Lbs and 183 Lbs and 230.5 Lbs.

Q: And the “Maximum muscle strength on the knee extension (KE), raw value, Day 42” value (individual Treated subjects A-I, Day 42, safety follow-up after end of treatment, sodium salt)?
A: Its value is 270.5 Lbs (3×) and 265.5 Lbs and 238 Lbs and 158 Lbs and 183 Lbs and 220.5 Lbs.
